In patent EP0324328B1, “Use of the N-n-butyl derivative of desoxynojirimycin in the manufacture of a medicament inhibiting HIV-Virus” (priority 1987, dated 1989):
Where two headings read alike, the source gives them in different places.

Key:
HIV [1] = details: cited from earlier work; for effect upon HIV infectivity: Gruters et al., Nature 330, 74-77 (1987)
HIV [2] = experiment: Inhibition of HIV-associated cytopathic effect (CPE) in T-45 cells; type: cell-based; details: HIV infected T-45 cells, various concentrations (Fig. 3); result in words
Procedure: FIG. 3 is a graphical representation in which the inhibition of HIV associated CPE (―% CPE) reduction) and test compound-associated cytotoxicity (---% cell death) is plotted against the media concentration in mg/ml of several test compounds (drugs). The cell viability data was determined for non-HIV infected cells. The test compounds were the N-methyl-, N-ethyl-, and N-butyl derivatives of deoxynojirimycin (DNJ), castanospermine (Cast), N-(5-carboxymethyl-1-pentyl)-1,5-imino-L-fucitol (LFT) and 1,4-dideoxy-1,4-imino-L-arabinitol (LAB).
After a suitable period of incubation, the cultures are scored for the presence of so-called syncytial cells (giant cells). Typical examples of such a test for the evaluation of inhibitors of HIV have been disclosed by Fung et al., Bio/Technology 5, 940-946 (1987); Tyms et al., Lancet, October 31, 1987, pp. 1025-1026; Gruters et al., Nature 330, 74-77 (1987); and Walker et al., Proc. Natl. Acad. Sci. USA 84, 8120-8124 (1987).
(§1) The efficacy of the test compounds used in this example was assessed as follows: 0.2 ml of culture medium containing 10^4 T-45 cells were transferred into each well of a 96-well flat-bottomed tissue-culture plastic plate and the cells were allowed to settle at 37°C (see Figure 1). After 4 hours the media were aspirated and replaced with media which contained the test compound. Following overnight incubation the media was aspirated and 10^4 TCID of virus (HIV-1 or HIV-2) was added to each well. Incubation was continued at 37°C in 5% CO2 for 1 hour. Thereafter, growth media containing the various compounds were added and incubation at 37°C was continued. On the fourth day the cell suspensions from each well were split and seeded into two new wells and 0.2 ml of fresh media with compounds was added. This was repeated on the seventh day. Cells were examined by microscopy during days 1 to 10 for the presence of syncytia, growth rate and the appearance of the cytopathic effect (CPE) (giant cells, pycnotic nuclei, loss of refractility). CPE (100%) was defined as no round, refractile, uniform cells remaining; only giant, ballooned pyknotic cells were present. The viability of HIV infected cultures was determined by a rough count/estimate of cells which underwent CPE in relation to round refractile uniform (normal) cells in a given culture. Cells in wells which were incubated with compounds which appeared to inhibit or reduce HIV replication and in which there was marked cell proliferation were either transferred to larger wells (of a 24-well plate) or divided in order to maintain an approximate constant cell density to promote continuous cell division.

T-45 cells = type: cell-based, human; details: for Estimated Cell Growth Virus-uninfected Day 7: no-drug control 1.2x10^6; for cytotoxicity: non-infected cells, over the concentration range used (Fig. 3, Table 1), result in words
Procedure: FIG. 1 is a schematic outline of the test procedure used to assess the cytotoxic effect of test compounds on T-cells either infected or non-infected with HIV and in parallel the HIV inhibitory activity of the test compounds. TCID is the tissue culture infectious dose. Cells were cultured in RPMI-1640 medium with 10% fetal calf serum containing 100 units/ml penicillin G and 100 µg/ml streptomycin.
(§2) The assay was run in 96 well plastic microtiter plates in which 0.2 ml of culture medium containing 10^4 T-cells are seeded into each well. RPMI-1640 supplemented with 10% fetal calf serum was used as the culture medium. In each assay, 6 wells are used. Three (1-3) are infected with 10^4 TCID/well of HIV-1 or HIV-2 and to the other three (4-6) culture medium alone is added. Medium is changed at the same intervals for each test compound. The detailed assay procedure is illustrated in Figures 1 and 2.
as §1, with “culture.” for “culture. Cells in wells which were incubated with compounds which appeared to inhibit or reduce HIV replication and in which there was marked cell proliferation were either transferred to larger wells (of a 24-well plate) or divided in order to maintain an approximate constant cell density to promote continuous cell division.”
Quantitative data on the effect of the various compounds on the non-infected cells (cytotoxicity) was obtained by comparison of their growth rate to control cells not exposed to drugs (Table 1). […] In addition, the MOLT-4 cell line was also used.

HIV [3] = details: result in words; see Fleet et al., FEBS Lett., In Press, 1988; cited from earlier work
HIV-2 = experiment: Virus titer (TCID) of HIV-2 infected T-cell cultures grown with test compound; type: cell-based; details: control 10^6; for HIV-2 (TCID): Table 2, 0.10 mg/ml, 10^4 T-45 or MOLT-4 cells (identical results), 10^4 TCID inoculum, after day 10; for VIRUS TITER HIV-2: Table 3, Example 2, 0.1 mg/ml, T-45 and MOLT-4 cells, 10^4 TCID on 10^4 cells
Procedure: (§3) Cell free suspensions of the HIV were prepared from infected cultures. The concentration of infectious particles was estimated on end-point titration assay using serial ten-fold dilutions. The approximate number of infectious particles in each preparation was determined by the highest dilution which contains infectious HIV as determined by synctial formation, cytopathicity [Leonard et al., Proc. Natl. Acad. Sci. USA 85, 3570-3574 (1988); Barre-Sinoussi et al., Science 220, 868-870 (1983)] and HIV antigen [Karpas et al., Lancet 1, 695-697 (1985)] synthesis after 10 days of culture with 10^4 T-cells. This represents the concentration of infectious particles, herein defined as the tissue culture infectious dose (TCID).
as §2, §1
(§4) That is, HIV-1 was first passaged in T-45 cells; likewise, HIV-1 was first passaged in MOLT-4 cells. The same passaging was done with HIV-2. The test compounds were used at a concentration of 0.1 mg/ml. 10^4 TCID of HIV-1 and separately of HIV-2 were used to infect 10^4 cells. Upon completion of the test, the virus titers were as follows: TABLE 3

HIV-1 = experiment: Virus titer (TCID) of HIV-1 infected T-cell cultures grown with test compound; type: cell-based; details: control 10^6; for HIV-1 (TCID): Table 2, 0.10 mg/ml, 10^4 T-45 or MOLT-4 cells (identical results), 10^4 TCID inoculum, after day 10; for VIRUS TITER HIV-1: Table 3, Example 2, 0.1 mg/ml, T-45 and MOLT-4 cells, 10^4 TCID on 10^4 cells
Procedure: as §3, §2, §1, §4

HIV [4] = experiment: TCID titre of culture supernatants of T-45 cells infected with HIV, Fig. 4; type: cell-based; details: for reduction of TCID titre of culture supernatants: T-45 cells infected with HIV, after 10 days in culture, result in words
Procedure: FIG. 4 is a graphical representation in which the viral titer (determined as TCID) is plotted against the concentration in mg/ml of various of the test compounds (drugs) of FIG. 3 in panels (a) and (b).
as §3, §1
Quantitative data on the effect of the various compounds on the non-infected cells (cytotoxicity) was obtained by comparison of their growth rate to control cells not exposed to drugs (Table 1). Fig. 4 and Table 2 show the relation between the TCID titre of culture supernatants of T-45 cells infected with HIV after 10 days in culture and the concentration of drug. […] The inability of any of these drugs alone to totally reduce the TCID may be due to heterogeneity of virus production or spread. […] In addition, the MOLT-4 cell line was also used.

[5] = test system: B16-F10 murine melanoma cells; experiment: Incorporation of radiolabeled galactose, mannose, glucose and thymidine into cells; type: cell-based; details: result in words

Molecule: O[C@H]1[C@H](O)[C@@H](O)CN2CC[C@H](O)[C@H]12 [Cast, castanospermine]
- reduction in virion infectivity (HIV [1]; background literature, b4): only a modest reduction in virion infectivity
- effect on CPE formation (HIV [2]): bell shaped dose-dependence
- Estimated Cell Growth Virus-uninfected Day 7 (T-45 cells; Dosage 0.02 mg/ml): 1.2x10^6
- Estimated Cell Growth Virus-uninfected Day 7 (T-45 cells; Dosage 0.09 mg/ml): 1.0x10^6
- Estimated Cell Growth Virus-uninfected Day 7 (T-45 cells; Dosage 0.18 mg/ml): 8.0x10^5
- Estimated Cell Growth Virus-uninfected Day 7 (T-45 cells; Dosage 0.35 mg/ml): 8.0x10^5
- Estimated Cell Growth Virus-uninfected Day 7 (T-45 cells; Dosage 0.70 mg/ml): Toxic
- cytotoxicity (T-45 cells): cytotoxic
- HIV inhibitory activity / effect on CPE (HIV [3]): inhibition of the cytopathic effect (CPE) by the α-glucosidase I inhibitor castanospermine is confirmed

Molecule: OC[C@H]1NC[C@@H](O)[C@@H]1O [D-enantiomer of 1,4-dideoxy-1,4-imino-arabinitol, 1,4-dideoxy-1,4-imino-arabinitol]
- HIV inhibitory activity / effect on CPE (HIV [3]): very little effect on HIV replication

Molecule: OC[C@H]1NC[C@@H](O)[C@@H](O)[C@@H]1O [DMJ, deoxymannojirimycin]
- effect upon HIV infectivity (HIV [1]): absence of effect

Molecule: OC[C@H]1NC[C@H](O)[C@@H](O)[C@@H]1O [DNJ, 1,5-dideoxy-1,5-imino-D-glucitol]
- HIV-2 (TCID) (HIV-2): 10^5 TCID
- VIRUS TITER HIV-2 (HIV-2): 10^5
- effect upon HIV infectivity (HIV [1]): positive effect
- HIV-1 (TCID) (HIV-1): 10^5 TCID
- VIRUS TITER HIV-1 (HIV-1): 10^5
- Estimated Cell Growth Virus-uninfected Day 7 (T-45 cells; Dosage 0.25 mg/ml): 1.4x10^6
- Estimated Cell Growth Virus-uninfected Day 7 (T-45 cells; Dosage 0.50 mg/ml): 1.4x10^6
- reduction of TCID titre of culture supernatants (HIV [4]): reduced the TCID only partially
- galactose incorporation into the cells ([5]; radiolabeled galactose): substantially inhibited galactose incorporation into the cells at 1.0 mM or less
- glucose utilization/inhibition ([5]; radiolabeled glucose): inhibited in a normal dose-response manner
- mannose utilization ([5]; radiolabeled mannose): inhibited mannose utilization
- ^3H-Thymidine uptake into the cells [5]: inhibited incorporation at 2.0 mM

Molecule: CCN1C[C@H](O)[C@@H](O)[C@H](O)[C@H]1CO [EtDNJ, N-ethyl-deoxynojirimycin]
- HIV-2 (TCID) (HIV-2): 10^3 TCID
- VIRUS TITER HIV-2 (HIV-2): 10^3
- HIV-1 (TCID) (HIV-1): 10^3 TCID
- VIRUS TITER HIV-1 (HIV-1): 10^3
- effect on CPE formation (HIV [2]): bell shaped dose-dependence
- Estimated Cell Growth Virus-uninfected Day 7 (T-45 cells; Dosage 0.01 mg/ml): 1.2x10^6
- Estimated Cell Growth Virus-uninfected Day 7 (T-45 cells; Dosage 0.05 mg/ml): 1.2x10^6
- Estimated Cell Growth Virus-uninfected Day 7 (T-45 cells; Dosage 0.10 mg/ml): 1.3x10^6
- cytotoxicity (T-45 cells): cytotoxic
- reduction of TCID titre of culture supernatants (HIV [4]): reduced the TCID only partially
- reduction of the virus titer / yield of infectious HIV (HIV [4]; at non-cytotoxic concentrations): two to four log-order of reduction

Molecule: O[C@@H]1[C@@H](O)[C@@H](O)CN2CC[C@H](O)[C@@H]12 [L-1,6-diepicastanospermine]
- HIV inhibitory activity / effect on CPE (HIV [3]): neither the epimer L-1,6-diepicastanospermine nor the stereoisomer of castanospermine, L-6-epicastanospermine, were found to be inhibitory

Molecule: O[C@@H]1[C@@H](O)[C@@H](O)CN2CC[C@@H](O)[C@@H]12 [L-6-epicastanospermine]
- HIV inhibitory activity / effect on CPE (HIV [3]): neither the epimer L-1,6-diepicastanospermine nor the stereoisomer of castanospermine, L-6-epicastanospermine, were found to be inhibitory

Molecule: OC[C@@H]1NC[C@H](O)[C@H]1O [LAB, 1,4-dideoxy-1,4-imino-L-arabinitol]
- Estimated Cell Growth Virus-uninfected Day 7 (T-45 cells; Dosage 0.10 mg/ml): 1.5x10^6
- Estimated Cell Growth Virus-uninfected Day 7 (T-45 cells; Dosage 0.25 mg/ml): 1.5x10^6
- Estimated Cell Growth Virus-uninfected Day 7 (T-45 cells; Dosage 0.50 mg/ml): 1.0x10^6
- cytotoxicity (T-45 cells): showed no cytotoxicity over the concentration range used
- reduction of TCID titre of culture supernatants (HIV [4]): only able to reduce the TCID partially
- HIV inhibitory activity / effect on CPE (HIV [3]): strong HIV inhibitory activity

Molecule: OC[C@@H]1[C@@H](O)[C@H](O)[C@@H](O)CN1Cc1ccccc1 [N-benzyl derivative]
- HIV inhibitory activity / effect on CPE (HIV [3]): Neither the azofuranose analog of glucose nor the N-benzyl derivative were found to have an effect on CPE

Molecule: OC[C@H]1NCC[C@@H](O)[C@@H]1O [fagomine]
- HIV inhibitory activity / effect on CPE (HIV [3]): no HIV inhibition was observed

Molecule: N-(5-carboxymethyl-1-pentyl)-1,5-imino-L-fucitol [LFT]
- reduction of TCID titre of culture supernatants (HIV [4]): only able to reduce the TCID partially
